Laboratory results reported in paper PMC2720952 (BMC Evolutionary Biology, 2009).

Key:
[1] = target: AaxC (CT374) from C. trachomatis D/UW-3 (Chlamydia trachomatis, UniProt O84379); details: 1 mM L-arginine, E medium pH 5, 37 °C, 20 min; AaxB co-expressed; labelled compound
C. pneumoniae AaxC = C. pneumoniae AaxC (Chlamydia pneumoniae, UniProt Q9Z6M8); details: 1 mM L-arginine, E medium pH 5, 37 °C, 20 min; AaxB co-expressed; labelled compound
Chain of C. pneumoniae AaxC (Q9Z6M8 whole entry): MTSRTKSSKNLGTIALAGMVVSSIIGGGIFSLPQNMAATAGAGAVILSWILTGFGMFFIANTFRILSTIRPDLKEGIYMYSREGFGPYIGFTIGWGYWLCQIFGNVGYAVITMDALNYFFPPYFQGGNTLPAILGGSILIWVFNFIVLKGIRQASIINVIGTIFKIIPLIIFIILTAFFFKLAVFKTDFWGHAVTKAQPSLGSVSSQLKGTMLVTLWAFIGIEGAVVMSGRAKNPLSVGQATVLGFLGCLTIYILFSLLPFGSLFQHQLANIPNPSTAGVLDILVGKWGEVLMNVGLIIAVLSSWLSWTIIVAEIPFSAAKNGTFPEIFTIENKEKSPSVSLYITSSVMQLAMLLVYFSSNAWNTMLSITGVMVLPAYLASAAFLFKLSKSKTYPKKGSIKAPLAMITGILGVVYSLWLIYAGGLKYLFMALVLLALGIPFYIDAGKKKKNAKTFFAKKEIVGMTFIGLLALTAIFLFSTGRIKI

Chain of AaxC (CT374) from C. trachomatis D/UW-3 (O84379 whole entry): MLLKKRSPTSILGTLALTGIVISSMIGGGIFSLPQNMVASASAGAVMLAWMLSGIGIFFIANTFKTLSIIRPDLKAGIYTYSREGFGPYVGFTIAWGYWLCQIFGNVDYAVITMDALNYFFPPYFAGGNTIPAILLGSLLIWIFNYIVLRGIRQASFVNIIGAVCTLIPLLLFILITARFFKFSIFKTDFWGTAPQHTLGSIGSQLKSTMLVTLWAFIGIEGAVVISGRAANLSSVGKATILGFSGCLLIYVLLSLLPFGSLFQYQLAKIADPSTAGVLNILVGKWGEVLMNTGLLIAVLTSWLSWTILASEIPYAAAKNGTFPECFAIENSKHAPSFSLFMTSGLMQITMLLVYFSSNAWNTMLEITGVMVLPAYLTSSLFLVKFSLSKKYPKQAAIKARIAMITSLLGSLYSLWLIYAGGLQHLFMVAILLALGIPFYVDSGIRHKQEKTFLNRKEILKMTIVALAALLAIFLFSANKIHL

In the case of `N=C(N)NCCC[C@H](N)C(=O)O` [L-arginine], the “uptake of L-[2,3,4,5-3H]arginine by E. coli DEG0147 cells, filtration” value [1] is reported as “cells expressing D/UW-3 strain aaxBC genes showed significantly enhanced uptake” and the “uptake of L-[2,3,4,5-3H]arginine by E. coli DEG0147 cells, filtration” value (C. pneumoniae AaxC) is reported as “A significant difference in samples expressing C. pneumoniae aaxBC (relative to pBAD/HisA)”.
